From US7851467B2, “Carbamate compounds as 5-HT4 receptor agonists” (Theravance, Inc., priority 2005, dated 2010)

Target: T1, human 5-HT4(c) receptor (Homo sapiens, UniProt Q13639)
T1 construct: expressed in transfected cells; host or cells: HEK-293
Assay: Radioligand binding assay on 5-HT4(c) human receptors ([3H]-GR113808 displacement)
Details: HEK-293 membranes, [3H]-GR113808 at 0.15 nM, read-out: pKi value (converted)
Experimental: Assay 1: Radioligand Binding Assay on 5-HT4(C) Human Receptors a. Membrane Preparation 5-HT4(c)
HEK-293 (human embryonic kidney) cells stably-transfected with human 5-HT4(C) receptor cDNA (Bmax=˜6.0 pmol/mg protein, as determined using [^3H]-GR113808 membrane radioligand binding assay) were grown in T-225 flasks in Dulbecco's Modified Eagles Medium (DMEM) containing 4,500 mg/L D-glucose and pyridoxine hydrochloride (GIBCO-Invitrogen Corp., Carlsbad Calif.: Cat #11965) supplemented with 10% fetal bovine serum (FBS) (GIBCO-Invitrogen Corp.: Cat #10437), 2 mM L-glutamine and (100 units) penicillin-(100 μg) streptomycin/ml (GIBCO-Invitrogen Corp.: Cat #15140) in a 5% CO2, humidified incubator at 37° C. […]
For the membrane preparation, cell pellets were resuspended in ice-cold 50 mM 4-(2-hydroxyethyl)-1-piperazineethanesulphonic acid (HEPES), pH 7.4 (membrane preparation buffer) (40 mL/total cell yield from 30-40 T225 flasks) and homogenized using a polytron disrupter (setting 19, 2×10 s) on ice. […] Protein concentration of the membrane suspension was determined by the method of Bradford (Bradford, 1976). […]
Test compounds were received as 10 mM stock solutions in DMSO and diluted to 400 μM into 50 mM HEPES pH 7.4 at 25° C., containing 0.1% BSA, and serial dilutions (1:5) then made in the same buffer. Non-specific binding was determined in the presence of 1 μM unlabeled GR113808. […]

T1 sequence (Q13639 1-380 isoform Q13639-4): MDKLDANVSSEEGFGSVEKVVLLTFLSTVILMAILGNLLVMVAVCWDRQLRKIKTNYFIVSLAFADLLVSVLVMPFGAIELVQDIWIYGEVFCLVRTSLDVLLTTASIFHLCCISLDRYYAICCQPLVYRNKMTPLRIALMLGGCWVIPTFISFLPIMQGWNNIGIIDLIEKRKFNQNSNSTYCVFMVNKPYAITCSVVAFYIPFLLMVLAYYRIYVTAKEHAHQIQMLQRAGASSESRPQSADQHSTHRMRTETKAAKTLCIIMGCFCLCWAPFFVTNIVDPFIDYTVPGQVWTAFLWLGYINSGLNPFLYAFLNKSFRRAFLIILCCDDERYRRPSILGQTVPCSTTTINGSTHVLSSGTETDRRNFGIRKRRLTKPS

CC(C)n1c(=O)n(C(=O)N[C@H]2C[C@H]3CC[C@@H](C2)N3CCCOC(=O)N2CCN(C(=O)C3CCCO3)CC2)c2ccccc21 (stereo partly drawn) [Example 1, 4-(tetrahydrofuran-2-carbonyl)piperazine-1-carboxylic acid 3-{(1S,3R,5R)-3-[(3-isopropyl-2-oxo-2,3-dihydrobenzoimidazole-1-carbonyl)amino]-8-aza-bicyclo[3.2.1]oct-8-yl}propyl ester]
Ki: 12.6 nM
